For data set [1], the system named is BPH cells. As to the kind of experiment: BPH cell proliferation assay. In kind it is cell-based, human. To be noted: 48 h. The procedure:
Human BPH cells, prepared, maintained and used as previously described in Crescioli C, et al. Journal of Clinical and Endocrinology Metabolism (2000) 85 p 2576-2583, were obtained from prostate tissues derived from 5 patients, who underwent suprapubic adenomectomy for BPH, after informed consent and approval by the Local Ethical Committee.
For all cell proliferation assay, 4×10^4 BPH cells were seeded onto 12-well plates in their growth medium, starved in red- and serum-free medium containing 0.1% BSA for 24 h, and then treated with specific stimuli for 48 h. Cells in phenol red- and serum-free medium containing 0.1% BSA were used as controls. Thereafter, cells were trypsinized, and each experimental point was derived from hemocytometer counting, averaging at least six different fields for each well, as previously reported (see Crescioli C, et al. Journal of Clinical and Endocrinology Metabolism (2000) 85 p 2576-2583). […] Growth assays were also carried out using a fixed concentration of androgens (10 nM) with or without Compound A (1 nM, 10 nM) or the anti-androgens finasteride (F, 1 nM) and cyproterone acetate (Cyp, 100 nM). Growth assays were also performed using a fixed concentration of T (10 nM) or GFs (10 ng/ml) with or without Compound A (10 nM). In the same experiment, each experimental point was repeated in triplicate or quadruplicate and experiments were performed 3 times. Results are expressed as % variation (mean±SEM) over the maximal T or GF-induced stimulation.

For data set [2], the system named is prostate. Description: 9-month toxicity study in male beagle dogs (prostate weight). In kind it is in vivo, dog. The procedure: A 9-month toxicity study was carried out in four groups of male beagle dogs, which were treated by daily oral gavage with 0.5 μg, 1.5 μg and 5 μg/kg body weight/day of Compound A (in vehicle Miglyol 812) or with vehicle alone. This treatment was followed by a 2-month recovery period for the group receiving the highest dose, 5 μg, after which prostate weights was measured.

In data set [3] the test system is bladder. As to the kind of experiment: Bladder outlet obstruction (BOO) rat model, cystometry and bladder weight. The data set is classed as in vivo. The conditions noted are these: BOO rats, 150 μg/Kg daily, 2 weeks. The procedure:
• Female Sprague-Dawley rats, weighing 200-250 g 1.2. Grouping • Group A: BOO rats, treated with Compound A over 2 weeks, beginning at day 1 after creation of the obstruction (n=12) • Group B: BOO rats, treated with vehicle over 2 weeks, beginning at day 1 after creation of the obstruction (n=12) • Group C: Sham operated rats, treated with Compound A over 2 weeks, beginning at day 1 after surgery (n=12) 1.3. Studies: • a) Cystometry (˜18 hours after last administration of the drug/vehicle, 12 hours after removal of the obstructing ligature) under conscious conditions. • b) Measurements of bladder weight • c) In vitro investigations 2. Methods 2.1. Bladder Outlet Obstruction (BOO):
The bladder and urethrovesical junction were exposed through a lower abdominal midline incision. A 0.9 mm metal rod was placed alongside the proximal urethra and a 3-0 silk ligature was tied tightly around the urethra and the rod, which was consequently be removed. Sham surgery was be performed accordingly, without placing the ligature. After 13 days the ligature was be removed and a catheter was be inserted into the bladder dome and tunneled subcutaneously.
The following morning after insertion of the catheter, the cystometric investigation was performed without any anesthesia or restraint in a metabolic cage. The amount of voided urine was measured by means of a fluid collector, connected to a force displacement transducer. The bladder was continuously filled with saline at room temperature. The catheter was also connected to a pressure transducer. After a stabilization period of 30-60 minutes, when reproducible voiding patterns are achieved, the following parameters were recorded over a period of 30 minutes: Basal bladder pressure, micturition pressure, threshold pressure, micturition interval and volume, and non-voiding contractions. The amount of residual urine was investigated manually 3 times, at the end of the cystometry. Bladder capacity was calculated based on the measured values.
The validated bladder outlet obstruction rat model described above was used to test the ability of Compound A to control and treat bladder dysfunction. The objective was to evaluate whether a vitamin D3 analogue (1-alpha-fluoro-25-hydroxy-16,23e-diene-26,27-bishomo-20-epi-cholecalciferol—compound “A”) at the dose of 150 μg/Kg/daily) can prevent bladder hypertrophy and bladder dysfunction such as bladder overactivity.
In this model a ligature was surgically placed around the outlet of the catheterized bladder, so that when the catheter was removed, the bladder experienced increased urethral resistance. The rats underwent continuous cystometry to evaluate bladder function. In addition the contractile properties of isolated bladder preparation in response to nerve stimulation and exogenous stimuli in vitro were investigated under electrical field stimulation (EFS).
The following cystometric parameters were investigated (see FIGS. 12-16): • micturition pressure (the maximum bladder pressure during micturition), • bladder capacity (residual volume after voiding plus the volume of saline infused to induce the void) • micturition volume (volume of the expelled urine) • residual urine (bladder capacity minus micturition volume) and • frequency and amplitude of spontaneously occurring changes intravesical pressure (non-voiding contractions).

Data set [4] has as its system bladder strips. Description: In vitro contractility of bladder strips from BOO rats. Also noted: species or system rat. To be noted: strips from treated rats. The procedure: After completion of the cystometries, the rats were sacrificed by carbon monoxide asphyxiation followed by exsanguination. The abdomen was accessed through a lower midline incision whereafter the symphysis was opened. The bladder was carefully dissected free, and immediately placed in chilled Krebs solution, and strip preparations were dissected.
The bladder and urethra were separated at the level of the bladder neck, and semicircular strips were prepared from the middle third of the detrusor (1×2×5 mm). All preparations were used immediately after removal.
The strips were transferred to 5 ml tissue baths containing Krebs solution. The Krebs solution was maintained at 37° C. and bubbled continuously with a mixture of 95% O2 and 5% CO2, resulting in a pH of 7.4. The strips were suspended between two L-shaped hooks by means of silk ligatures. One hook was connected to a movable unit allowing adjustment of passive tension, and the other to a Grass FT03C (Grass Instruments Co, MA, USA) force transducer. Isometric tension was recorded using a Grass polygraph (7D). After mounting, the strips were stretched to a passive tension of 4 mN (the same tension for all preparations) and allowed to equilibrate for 45-60 min before further experiments were performed.
Electrical field stimulation (EFS) was accomplished by means of two platinum electrodes placed on either side of the preparations, and was performed using a Grass S48 or S88 stimulator, delivering single square wave pulses at selected frequencies. The train duration was 5 s, the pulse duration 0.8 ms, and the stimulation interval 2 min. The polarity of the electrodes was shifted after each pulse by means of a polarity changing unit.
Each experiment was started by exposing the preparations to a high K^+ (124 mM) Krebs solution until two reproducible contractions are obtained. […]

Each structure is given as a SMILES string. Entries after “also recorded” stand apart in the source; their conditions may differ.

For `C=C1/C(=C\C=C2/CCC[C@]3(C)C([C@@H](C)C/C=C/C(O)(CC)CC)=CC[C@@H]23)C[C@@H](O)C[C@@H]1F` [Compound A, 1-alpha-fluoro-25-hydroxy-16,23E-diene-26,27-bishomo-20-epi-cholecalciferol], the “effect on growth of androgen-unstimulated BPH cells” value in data set [1] (Compound A 1 nM) is “reduced growth”. Further, in data set [1] (DHT 10 nM, Compound A 1 nM, F 1 nM, Cyp 100 nM), the “effect on DHT-stimulated BPH cell proliferation” value was “antagonized; also recorded: significantly blocked”. In data set [1] (T 10 nM, Compound A 1 nM, F 1 nM, Cyp 100 nM), the “effect on T-stimulated BPH cell proliferation” value was “antagonized; also recorded: significantly blocked”. Further, in data set [1] (T 10 nM, KGF or Des(1-3)IGF-I 10 ng/ml), the “Imax, inhibition of T- or GF-stimulated BPH cell growth” value worked out at 66.6±7.3%. In addition, in data set [1] (unstimulated BPH cells, Imax shared by both secosteroids), the “maximal inhibition (Imax) of BPH cell growth” value is 43±1%. Besides, the “prostate weight after recovery” value in data set [2] (5 μg/kg/day 9 months then 2-month recovery, vs vehicle) is given as “reduction of prostate weight”. Besides, the toxicity data result in data set [2] (9 months daily oral gavage) is “entirely favourable toxicity data”. In addition, in data set [2] (9 months daily oral gavage, 0.5, 1.5, 5 μg/kg/day, vs vehicle), the “prostate weight at end of treatment” value was “lower prostate weight; also recorded: clear reduction of prostate weight”. In addition, in data set [3], the bladder weight result was “slight decrease”, the micturition pressure entry is reported as “significant differences versus vehicle”, the residual urine result is “absent” and the “spontaneous non-voiding contraction amplitude” value is listed as “significant differences versus vehicle”. In data set [3], the “spontaneous non-voiding contraction frequency” value is “significant differences versus vehicle”. Besides, in data set [4], the “response of bladder strips to EFS” value was “beneficial effect” and the “response of bladder strips to carbachol” value is “beneficial effect”. Further, in data set [4] (high K+ 124 mM), the “K response of bladder strips” value is “beneficial effect”.

Source of the values: patent publication US7332482B2, “Method for treating benign prostatic hyperplasia” (BioXell S.p.A., priority 2003, dated 2008).
